# Assay: Toxicokinetic study in the rabbit model (serum creatinine, hematology, organ examination)
# Procedure: On Days 1 and 7, blood samples were collected prior to drug administration and at 0.5, 1, 2, 4, 8, 12, 18, and 24 hours post-dose to generate a pharmacokinetic profile. Other evaluated parameters included clinical observations, body weight, food consumption, hematology, clinical chemistry, gross pathology, and histopathological examination of selected tissues/organs.
compound,measurement,setting,value
C=C/C=C/C[C@@H](C)[C@@H](O)[C@H]1C(=O)N[C@@H](CC)C(=O)N(C)CC(=O)N(C)[C@@H](CC(C)C)C(=O)N[C@@H](C(C)C)C(=O)N(C)[C@@H](CC(C)C)C(=O)N[C@@H](C)C(=O)N[C@H](C)C(=O)N(C)[C@@H](CC(C)C)C(=O)N(C)[C@@H](CC(C)C)C(=O)N(C)[C@@H](C(C)C)C(=O)N1C [ISATX247],Examination of organs: spermatogenesis,"male rabbits, 15 mg/kg",decrease in spermatogenesis
same,Examination of organs,"rabbits, 5 mg/kg",no significant abnormalities
same,Examination of organs,"rabbits, 10 mg/kg",no significant abnormalities
same,Interstitial fibrosis in the kidneys,"rabbits, 10 mg/kg cyclosporine A, 5 or 10 mg/kg ISATx247",no evidence of interstitial fibrosis
same,Increase in serum creatinine levels,"rabbits, 15 mg/kg/day",did not result in any significant increase
same,Changes in hematological parameters,"rabbits, 30-day study",No significant changes

# Source: patent US7829533B2, “Cyclosporin analog formulations” (Isotechnika Inc., priority 2001, dated 2010)
